According to patent US9326506B2, “Preparation method, agricultural composition and applications of natural brassinolide analogs” (CHENGDU NEWSUN CROPSCIENCE CO., LTD, priority 2012, dated 2016):

Experiments:
[1] = test system: rice; test: Rice leaf bending assay (leaf inclination angle); assay type: in vivo; settings: for Average angle / Total angle: 48 hr; for Total angle: sum of 20 rice
Text: According to a rice leaf bending assay, we measured leaf inclination angle of rice to determine effects of the natural brassinolide analogues on the enhancement of plant development. The larger the leaf inclination angle of rice, the more effects on plant development. The detailed assay procedure is as follows:
The natural brassinolide analogues, BR1, BR2, BR3, BR4, BR5 and BR6, used herein, were those prepared by the method of Example 1. And BR1, BR2, BR3, BR4, BR5 and BR6 were mixed into a mixture of brassinolide analogues (referred to as “BRs”, in which the weight ratio of BR1:BR2:BR3:BR4:BR5:BR6 is 0.4:0.4:0.4:0.4:0.4:98). Respectively the analogues and the mixture were dissolved into 95% (V/V) ethanol solution, and then diluted with pure water to 1 mg/L, 0.1 mg/L, 0.01 mg/L, 0.001 mg/L and 0.0001 mg/L. In addition, pure water was used as a control.
After rice seeds were disinfected by using 5% sodium hypochlorite solution treatment, they were rinsed with distilled water until their pH>7, placed into a petri dish in a dark incubator, and cultured by using water at 30° C.±2° C. for 9 days. Then the nine-day-old etiolated seedlings of rice were cut around the center of the base of second leaf to segments with 1 cm leaf and 1 cm leaf sheath. The leaf segments were floated in distilled water, placed in a dark incubator, cultured at 30° C.±2° C. for 24 hr, and then dried by a filter paper. The dried leaf segments were respectively immersed in the above solutions containing different concentrations of the natural brassinolide analogues or pure water, and cultured in a dark incubator at 30° C.±2° C. for 48 hr. Every solution or pure water contained the leaf segments from 20 rice. Then the inclination angle between the second leaf and the leaf sheath of the leaf segments was measured by a protractor.

[2] = test system: rice seed; test: Salt tolerance assay: germination of rice seed under high salt environment; assay type: in vivo
Text: According to a salt tolerance assay, we measured germination of rice seed under high salt environment to determine effects of the natural brassinolide analogues on the salt tolerance of a plant.
The natural brassinolide analogues, BR1, BR2, BR3, BR4, BR5 and BR6, used herein, were those prepared by the method of Example 1. And BR1, BR2, BR3, BR4, BR5 and BR6 were mixed into a mixture of brassinolide analogues (referred to as “BRs”, in which the weight ratio of BR1:BR2:BR3:BR4:BR5:BR6 is 0.4:0.4:0.4:0.4:0.4:98). Respectively the analogues and the mixture were dissolved into 95% (V/V) ethanol solution, and then diluted with pure water to 1 mg/L, 0.1 mg/L, 0.01 mg/L, 0.001 mg/L and 0.0001 mg/L. In addition, pure water was used as a control. Furthermore, NaCl was added to the above solutions containing different concentrations of the natural brassinolide analogues or pure water respectively, and the concentrations of the salt are 300, 400, 500 and 600 mg/L respectively.
After rice seeds were disinfected by using 5% sodium hypochlorite solution treatment, they were rinsed with distilled water until their pH>7, placed into a petri dish in a dark incubator, and cultured at 30° C.±2° C. by using the above solutions containing different concentrations of the natural brassinolide analogues or pure water for observing the germination and calculating germination rates. The results are shown in tables 4-0˜4-4, which indicate that relative to the control, each of the natural brassinolide analogues and the mixture were capable of increasing germination rates of rice under high salt environment so as to enhance the salt tolerance of a plant; and substantially the enhancement of the germination rates was positively correlated to the concentrations of the natural brassinolide analogues and the mixture.

CC(C)[C@H](C)[C@@H](O)[C@H](O)[C@@H](C)[C@H]1CCC2C3COC(=O)C4C[C@H](O)[C@H](O)C[C@]4(C)C3CC[C@@]21C (stereo partly shown) [BR1]
Average angle ([1]; 0.0001 mg/l): 5.34 degree | Total angle ([1]; 0.0001 mg/l): 106.8 degree | Average angle ([1]; 0.001 mg/l): 11.27 degree | Total angle ([1]; 0.001 mg/l): 225.4 degree | Average angle ([1]; 0.01 mg/l): 21.05 degree | Total angle ([1]; 0.01 mg/l): 421 degree | Average angle ([1]; 0.1 mg/l): 36.25 degree | Total angle ([1]; 0.1 mg/l): 725 degree | Average angle ([1]; 1 mg/l): 110.75 degree | Total angle ([1]; 1 mg/l): 2215 degree | Effects on leaf inclination compared among analogues ([1]; in the case of high concentrations): more than those of BR2, BR3 and BR4 | Germination rate ([2]; sample 0.0001 mg/l, salt 300 mg/l): 51% | Germination rate ([2]; sample 0.0001 mg/l, salt 400 mg/l): 48% | Germination rate ([2]; sample 0.0001 mg/l, salt 500 mg/l): 42% | Germination rate ([2]; sample 0.0001 mg/l, salt 600 mg/l): 36% | Germination rate ([2]; sample 0.001 mg/l, salt 300 mg/l): 53% | Germination rate ([2]; sample 0.001 mg/l, salt 400 mg/l): 49% | Germination rate ([2]; sample 0.001 mg/l, salt 500 mg/l): 45% | Germination rate ([2]; sample 0.001 mg/l, salt 600 mg/l): 37% | Germination rate ([2]; sample 0.01 mg/l, salt 300 mg/l): 55% | Germination rate ([2]; sample 0.01 mg/l, salt 400 mg/l): 52% | Germination rate ([2]; sample 0.01 mg/l, salt 500 mg/l): 47% | Germination rate ([2]; sample 0.01 mg/l, salt 600 mg/l): 39% | Germination rate ([2]; sample 0.1 mg/l, salt 300 mg/l): 58% | Germination rate ([2]; sample 0.1 mg/l, salt 400 mg/l): 52% | Germination rate ([2]; sample 0.1 mg/l, salt 500 mg/l): 49% | Germination rate ([2]; sample 0.1 mg/l, salt 600 mg/l): 40% | Germination rate ([2]; sample 1 mg/l, salt 300 mg/l): 62% | Germination rate ([2]; sample 1 mg/l, salt 400 mg/l): 55% | Germination rate ([2]; sample 1 mg/l, salt 500 mg/l): 50% | Germination rate ([2]; sample 1 mg/l, salt 600 mg/l): 42%
